Measured values published in patent US5283343A, “2-aryl substituted N-acetyltryptamines and process of preparing such” (priority 1991, dated 1994).
“Also recorded” adds a separate entry of the source.

Assays:
[1] = Behavioral despair (forced swimming) test for antidepressants, C3H/HeN mice; assay type: in vivo, mouse (C3H/HeN)
Source text: (§1) Methods: Typical and atypical antidepressants reduce the time during which mice are immobile in a forced swimming test. [Porsolt et al., Arch. Int. Pharmacodun. Ther. 229:327-336 (1977)]. This test, known as the behavioral despair test, appears to be a good predictor of clinical antidepressant activity.
(§2) Male albino Swiss ND/4 mice and C3H/HeN mice (4 to 5 weeks old) were purchased from Harlam Sprague Dawley (Indianapolis, Ind.). […] The animals were kept in the same facilities at least two weeks before the experiment to allow them to adapt to a 14/10 hour light/dark cycle (lights on at 4 a.m./off at 6 p.m.).
(§3) Mice were housed in groups of 10 in polycarbonate plastic cages 137/8×85/8×51/8 inches with 88 square inches of floor space) with free access to feed (Agway 3000 rat, mouse and hamster feed) and water. During the light period, light intensity at the level of the cages was about 250 lux. The room temperature was kept constant at 22±1° C. The present series of experiments were conducted between October, 1986 and January, 1987.
(§4) The day of the experiment, mice were weighed, marked on the tail and placed in cages (8 mice per cage) as described above. Animals were transferred to the laboratory where the swim test was to be conducted at 10:00 a.m. for noon experiments and at 5:00 p.m. for evening experiments. For noon experiments, the swim test was started at 12:00 h and for midnight experiments, the swim test was started at 24:00 h. Two mice obtained from different experimental groups were tested simultaneously.
(§5) Apparatus: The apparatus consisted of two glass beakers (height: 13 cm; diameter: 11.5 cm), each placed inside a bigger glass beaker (height: 20 cm; diameter: 12.4 cm) containing 6 cm of water at 23±1° C. A non-transparent panel placed between the two cylinders prevented the mice from seeing each other. At midnight, experiments were conducted under red dim light (Kodak, filter A) provided by two photographic safety lights located at each side of the beakers.
(§6) Drugs: Mice were injected with vehicle or drugs dissolved in vehicle dissolved at the appropriate concentrations. Each mouse received 0.1 ml of liquid/10 g body weight. Drugs were dissolved immediately before the experiment. Desipramine was obtained from Sigma (St. Louis, Mo.) and dissolved in water. […] Bright light was administered with a fluorescent lamp placed one foot above the mice.
(§7) Methods The swim test was conducted as described by Porsolt et al. [Arch. Int. Pharmacodyn. 229:327-336 (1977)]. Forced swim in a narrow cylinder induced a depressed state characterized by an immobile posture, which is readily identifiable. A mouse is considered to be immobile when it ceases struggling and remains floating motionless in the water, making only those movements necessary to keep its head above water. […] Two mice that had received different treatments were observed simultaneously. Mice were dropped into the cylinders and left in the water for 6 minutes. The time of immobility was recorded during the last 4 minutes of swimming.

[2] = Behavioral despair (forced swimming) test for antidepressants, albino Swiss ND/4 mice; assay type: in vivo, mouse (male albino Swiss ND/4); details: for Duration of Immobility: albino Swiss ND/4 mice, 30 mg/kg; for change in time of immobility (in words): albino Swiss mice, noon or midnight
Source text: as §1, §2, §3, §4, §5, §6, §7

melatonin receptor [3] = details: rabbit or chicken retina, Dubocovich 1985; cited from earlier work
melatonin receptor [4] = target: T1, melatonin receptor (Oryctolagus cuniculus, UniProt G1SUP2); experiment: Melatonin receptor assay: calcium-dependent/stimulation-evoked release of 3H-dopamine from rabbit retina (Dubocovich assay); assay type: biochemical; details: for effect on melatonin concentration-response curves / melatonin-induced inhibition of calcium-dependent 3H-DA release: compound present during S1 and S2, 0.1, 1 or 10 μM, FIGS. 3a, 3b
T1 sequence (G1SUP2 1-362): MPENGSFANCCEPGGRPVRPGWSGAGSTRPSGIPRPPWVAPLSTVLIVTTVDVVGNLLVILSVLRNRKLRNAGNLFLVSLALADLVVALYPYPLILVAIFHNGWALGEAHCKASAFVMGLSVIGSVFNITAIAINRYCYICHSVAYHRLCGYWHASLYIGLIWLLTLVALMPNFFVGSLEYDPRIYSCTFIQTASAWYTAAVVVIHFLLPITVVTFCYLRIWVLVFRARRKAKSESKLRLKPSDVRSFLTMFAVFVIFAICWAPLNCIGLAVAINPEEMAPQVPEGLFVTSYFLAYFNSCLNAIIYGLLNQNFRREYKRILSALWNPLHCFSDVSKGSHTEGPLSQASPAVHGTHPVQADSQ
Description: Briefly, dopamine release was elicited in vitro by electrical field stimulation (3 Hz, 1 min. 20 mA, […].) of rabbit retinal pieces which had been prelabeled with ^3 H-dopamine. Release was determined as the percentage of total tissue radioactivity that was released during stimulation(s) minus the spontaneous release level determined before and after stimulation. Two periods of stimulation (S1 and S2) were applied 40 minutes apart in each experiment. Results are expressed as the ratio of release in S2 to release in S1 (FIG. 1.).
Drugs are added 20 minutes before the second stimulation to test their effect on the spontaneous and stimulation evoked release of ^3 H-dopamine.
First, the compounds (antagonists) were tested alone to determine their effect on spontaneous and stimulated release of dopamine (FIG. 2a.).
The compound of Example A was present during both S1 and S2 at a concentration of 0.1 μM, 1 μM, or 10 μM. Control is .largecircle..

melatonin receptor [5] = target: T1, melatonin receptor; details: in vitro, Dubocovich literature; cited from earlier work
[6] = C3H/HeN mice, 3.00 mg/kg, midnight, control 67.7 ± 2.15
[7] = C3H/HeN mice, 3.00 mg/kg, noon, control 47.7 ± 3.4
[8] = C3H/HeN mice, 10.00 mg/kg, midnight, control 67.7 ± 2.15
[9] = C3H/HeN mice, 10.00 mg/kg, noon, control 47.7 ± 3.4
[10] = C3H/HeN mice, .03 mg/kg, midnight, control 67.7 ± 2.15
[11] = C3H/HeN mice, .03 mg/kg, noon, control 47.7 ± 3.4
[12] = C3H/HeN mice, noon and midnight

SMILES | Duration of Immobility [1, 6] [s] | Duration of Immobility [1, 7] [s] | Duration of Immobility [1, 8] [s] | Duration of Immobility [1, 9] [s] | Duration of Immobility [1, 10] [s] | Duration of Immobility [1, 11] [s] | change in time of immobility (in words) [1, 12] | Duration of Immobility ([2]; midnight, control 84.3 ± 11.2) [s] | Duration of Immobility ([2]; noon, control 72.4 ± 4.9) [s] | change in time of immobility (in words) [2] | other results
CNCCCN1c2ccccc2CCc2ccccc21 [Desipramine] | 16.1 ± 6.0 | 20.7 ± 3.7 | 13.2 ± 7.2 | 20.7 ± 2.0 | 33.2 ± 7.3 | 46.2 ± 12.9 | more potent to reduce the time of immobility at midnight than at noon | 46.0 ± 1.3 | 38.2 ± 5.1 | same decrease in time of immobility in the behavioral despair test at noon and at midnight | 
CC(=O)NCCc1c[nH]c2ccccc12 [N-acetyl tryptamine] |  |  |  |  |  |  |  |  |  |  | melatonin receptor antagonist property (melatonin receptor [3]): melatonin receptor antagonist
CC(=O)NCCc1c(Cc2ccccc2)[nH]c2ccccc12 [Example N-0774, 2-benzyl-N-acetyl tryptamine] | 16.1 ± 5.2 | 37.4 ± 6.6 | 13.1 ± 3.6 | 52.1 ± 6.8 | 47.7 ± 4.7 | 53.8 ± 8.8 | reduces the time of immobility in a dose-dependent fashion, the effect being more pronounced at midnight than at noon | 81.4 ± 3.9 | 57.4 ± 8.9 | neither melatonin nor the melatonin receptor antagonist N-0074 modified the time of immobility | Duration of Immobility ([1]; Table 4, 10 mg/kg, midnight, control 67.7 ± 2.15, strain not given): 16.1 ± 5.20 s; change in time of immobility (in words) ([1]; midnight, compared with bright light): decreases the time of immobility; estimated KB (affinity constant from the Schild plot) (melatonin receptor [4]; antagonist against melatonin, rabbit retina, antagonist 0.1, 1 or 10 μM in S1 and S2): 20 µM; direct effect on spontaneous dopamine release (Sp2/Sp1) (melatonin receptor [4]; compound alone, 0.1-10 μM, FIG. 2a, listed as Example A): little or no direct effects; also recorded: did not modify the control ratio Sp2 /Sp1; direct effect on stimulated (calcium-dependent) dopamine release (S2/S1) (melatonin receptor [4]; compound alone, 0.1-10 μM, FIG. 2b, listed as Example A): little or no direct effects; also recorded: did not modify the control ratio; effect on melatonin concentration-response curves / melatonin-induced inhibition of calcium-dependent 3H-DA release (melatonin receptor [4]; listed as Example A): shifted in parallel to the right; effect on melatonin concentration-response curves / melatonin-induced inhibition of calcium-dependent 3H-DA release (melatonin receptor [4]; listed as Luzindole (N-0774)): antagonization of melatonin-induced inhibition; activity at melatonin receptors (conclusion) (melatonin receptor [4]; rabbit retina): potent, competitive antagonist at melatonin receptors
COc1ccc2[nH]cc(CCNC(C)=O)c2c1 [Melatonin, 5-methoxy-N-acetyl tryptamine] |  |  |  |  |  |  | did not change the time of immobility |  |  | neither melatonin nor the melatonin receptor antagonist N-0074 modified the time of immobility | Duration of Immobility ([1]; C3H/HeN mice, 30 mg/kg, Noon (In-Darkness Administration), control 29.5 ± 3.34): 48.2 ± 5.02 s; Duration of Immobility ([1]; C3H/HeN mice, 30.00 mg/kg, midnight, control 67.7 ± 2.15): 57.9 ± 9.0 s; Duration of Immobility ([1]; C3H/HeN mice, 30.00 mg/kg, noon, control 47.7 ± 3.4): 45.9 ± 18.0 s; change in time of immobility (in words) ([1]; C3H/HeN mice, noon, in-darkness administration): increased the time of immobility; inhibition of calcium-dependent release of 3H dopamine from rabbit retina (melatonin receptor [5]): inhibit dopamine release; also recorded: picomolar concentrations
